Active and inactive are the calls of the source.
What was measured:
Galanin receptor type 3 = biological target: T1, Galanin receptor type 3 (Homo sapiens, UniProt O60755); experiment: Fluorescence-based cell-based primary high throughput dose response assay to identify antagonists of the Galanin Receptor 3 (GalR3).; format: functional
T1 sequence (O60755 whole entry): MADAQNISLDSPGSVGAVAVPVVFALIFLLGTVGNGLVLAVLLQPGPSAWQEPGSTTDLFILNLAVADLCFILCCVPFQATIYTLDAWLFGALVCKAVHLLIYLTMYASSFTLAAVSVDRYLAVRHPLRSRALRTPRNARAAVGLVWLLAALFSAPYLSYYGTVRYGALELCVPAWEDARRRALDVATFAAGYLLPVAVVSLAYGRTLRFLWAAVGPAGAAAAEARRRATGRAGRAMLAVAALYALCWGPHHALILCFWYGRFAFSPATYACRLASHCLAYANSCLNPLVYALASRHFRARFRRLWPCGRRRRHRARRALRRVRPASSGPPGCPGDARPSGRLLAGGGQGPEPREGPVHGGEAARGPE

cells [1] = format: functional, cell-based; conditions: HEK-CNG
[2] = Shn3 3'UTR reporter inhibitors, dose response, cell-based, Clone20 osteoblasts, firefly luciferase, cherry-picked (AID 624132); format: functional;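 note: firefly luciferase luminescence from reporter carrying the Shn3 3'UTR in osteoblasts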
[3] = biological target: T2, COUP transcription factor 2 (Homo sapiens, UniProt P24468); experiment: Luminescence-based cell-based high throughput dose response assay to identify inhibitors of COUP-TFII (NR2F2).; format: functional;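 note: HEK293 cells transiently cotransfected with COUP-TFII expression vector and reporter; luciferase reporter luminescence driven by COUP-TFII from the pX2-168 reporter plasmid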
T2 sequence (P24468 whole entry): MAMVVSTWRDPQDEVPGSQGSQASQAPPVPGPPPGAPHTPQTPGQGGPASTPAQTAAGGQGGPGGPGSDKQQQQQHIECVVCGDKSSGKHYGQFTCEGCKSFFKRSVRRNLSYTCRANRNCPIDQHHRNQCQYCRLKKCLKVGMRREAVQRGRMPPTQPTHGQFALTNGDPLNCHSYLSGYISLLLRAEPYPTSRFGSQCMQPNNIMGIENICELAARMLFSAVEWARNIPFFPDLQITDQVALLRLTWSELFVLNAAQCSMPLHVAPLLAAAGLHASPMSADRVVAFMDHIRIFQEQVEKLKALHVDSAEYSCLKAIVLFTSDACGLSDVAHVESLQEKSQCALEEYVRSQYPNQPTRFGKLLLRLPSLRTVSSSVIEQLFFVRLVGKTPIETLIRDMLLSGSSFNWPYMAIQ

[4] = HepG2 cell cytotoxicity, dose response, cytotoxicity control for Shn3 inhibitor project, CellTiter-Glo, cherry-picked (AID 624134); format: functional, cell-based
[5] = control 3'UTR Renilla luciferase suppression, dose response, counter-screen for Shn3 inhibitor project, cell-based, Clone20-Shn3RL, cherry-picked (AID 624133); format: functional
[6] = IGROV1 ovarian cancer cell cytotoxicity, dose response, PAX8 inhibitor project, plate reader, dry powder samples (AID 743043); format: functional, cell-based; conditions: IGROV-1
[7] = A2780 ovarian cancer cell cytotoxicity, dose response, cytotoxicity control, plate reader, dry powder samples (AID 743046); format: functional, cell-based
[8] = NIH:OVCAR-3 ovarian cancer cell cytotoxicity, dose response, PAX8 inhibitor project, plate reader, dry powder samples (AID 743044); format: functional, cell-based
[9] = cytotoxicity in OVCAR8 ovarian cancer cells, dose response, PAX8 project, cell-based, plate reader, dry powder samples (AID 743197); format: functional; conditions: OVCAR-8
Paired box protein Pax-8 = Paired box protein Pax-8 (Homo sapiens, UniProt Q06710); experiment: inhibitors of PAX8-driven TPO luciferase reporter, dose response, RMG-I cells, cherry-pick (AID 687027); format: functional, cell-based;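 note: luciferase reporter driven by Pax8 target thyroperoxidase promoter measured by SteadyGlo luminescence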
Paired box protein Pax-8, sequence (Q06710 whole entry): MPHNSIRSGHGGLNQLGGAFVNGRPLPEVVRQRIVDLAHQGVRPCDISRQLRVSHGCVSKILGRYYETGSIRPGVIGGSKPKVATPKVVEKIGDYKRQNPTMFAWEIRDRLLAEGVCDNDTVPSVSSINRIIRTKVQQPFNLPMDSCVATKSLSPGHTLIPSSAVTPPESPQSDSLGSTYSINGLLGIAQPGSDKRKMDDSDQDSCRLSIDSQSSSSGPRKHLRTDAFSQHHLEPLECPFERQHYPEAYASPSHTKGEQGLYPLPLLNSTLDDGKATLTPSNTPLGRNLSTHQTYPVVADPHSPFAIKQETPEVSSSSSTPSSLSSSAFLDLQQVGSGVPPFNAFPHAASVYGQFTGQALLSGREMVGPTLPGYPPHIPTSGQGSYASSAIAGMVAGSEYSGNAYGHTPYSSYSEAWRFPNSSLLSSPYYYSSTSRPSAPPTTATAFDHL

[10] = Counterscreen for activators of the function of SWI/SNF related, matrix associated, actin dependent regulator of chromatin, subfamily a, member 2 (SMARCA2, BRM): Luminescence-based cell-based high throughput dose response assay to identify non-selective compounds using the VP16 reporter assay.; format: functional
[11] = biological target: SWI/SNF-related matrix-associated actin-dependent regulator of chromatin subfamily A member 2 (Homo sapiens, UniProt P51531); experiment: Luminescence-based cell-based high throughput dose response assay to identify activators of the function of SWI/SNF related, matrix associated, actin dependent regulator of chromatin, subfamily a, member 2 (SMARCA2, BRM).; format: functional
SWI/SNF-related matrix-associated actin-dependent regulator of chromatin subfamily A member 2, sequence (P51531 whole entry): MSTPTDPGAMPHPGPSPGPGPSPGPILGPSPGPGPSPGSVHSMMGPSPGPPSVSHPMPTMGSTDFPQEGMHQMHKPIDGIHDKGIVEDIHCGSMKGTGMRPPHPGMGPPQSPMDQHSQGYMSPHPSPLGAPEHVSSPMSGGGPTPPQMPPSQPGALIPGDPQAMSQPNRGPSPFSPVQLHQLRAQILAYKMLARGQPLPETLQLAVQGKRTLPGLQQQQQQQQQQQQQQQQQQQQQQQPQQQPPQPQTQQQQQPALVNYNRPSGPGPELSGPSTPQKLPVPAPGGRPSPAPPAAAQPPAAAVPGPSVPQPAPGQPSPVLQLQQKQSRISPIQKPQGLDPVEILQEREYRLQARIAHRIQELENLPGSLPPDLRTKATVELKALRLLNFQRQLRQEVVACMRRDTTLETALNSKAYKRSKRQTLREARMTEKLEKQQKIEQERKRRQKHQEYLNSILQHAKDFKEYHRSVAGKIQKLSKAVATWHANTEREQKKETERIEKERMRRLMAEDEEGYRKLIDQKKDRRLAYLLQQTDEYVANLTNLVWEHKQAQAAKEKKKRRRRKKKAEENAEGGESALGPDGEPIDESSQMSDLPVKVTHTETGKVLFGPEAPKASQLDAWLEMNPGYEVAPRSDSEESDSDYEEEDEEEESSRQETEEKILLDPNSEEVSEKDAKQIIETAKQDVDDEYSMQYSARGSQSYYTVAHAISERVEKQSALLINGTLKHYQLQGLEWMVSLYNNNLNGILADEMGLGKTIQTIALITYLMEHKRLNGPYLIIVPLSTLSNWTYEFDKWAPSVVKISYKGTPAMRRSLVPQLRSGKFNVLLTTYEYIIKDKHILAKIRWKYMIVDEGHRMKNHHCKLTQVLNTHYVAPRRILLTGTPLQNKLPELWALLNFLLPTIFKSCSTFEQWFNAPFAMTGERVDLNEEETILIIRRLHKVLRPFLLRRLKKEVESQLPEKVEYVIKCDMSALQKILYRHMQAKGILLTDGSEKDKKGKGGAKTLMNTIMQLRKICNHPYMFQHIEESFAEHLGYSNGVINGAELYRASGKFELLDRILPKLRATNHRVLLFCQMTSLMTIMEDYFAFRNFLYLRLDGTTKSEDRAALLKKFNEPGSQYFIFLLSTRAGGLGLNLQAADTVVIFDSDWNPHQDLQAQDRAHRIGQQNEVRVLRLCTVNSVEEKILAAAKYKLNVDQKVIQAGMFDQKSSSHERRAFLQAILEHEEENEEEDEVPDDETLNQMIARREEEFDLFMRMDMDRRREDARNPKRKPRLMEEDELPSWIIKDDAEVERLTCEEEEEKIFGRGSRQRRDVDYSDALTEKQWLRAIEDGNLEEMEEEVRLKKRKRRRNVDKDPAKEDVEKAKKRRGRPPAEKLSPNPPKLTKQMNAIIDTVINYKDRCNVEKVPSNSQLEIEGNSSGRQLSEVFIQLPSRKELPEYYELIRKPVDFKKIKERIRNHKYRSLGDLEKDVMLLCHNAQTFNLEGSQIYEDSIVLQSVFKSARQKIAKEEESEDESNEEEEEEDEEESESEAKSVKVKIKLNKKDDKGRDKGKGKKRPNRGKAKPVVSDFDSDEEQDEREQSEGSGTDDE

[12] = Luminescence Cell-Based Dose Retest to Confirm Inhibitors of Cancer Stem Cells. [Related pubchem assays (depositor defined):AID2717, AID2721]; format: functional; conditions: Homo sapiens
Protein Wnt-3a = Protein Wnt-3a (Mus musculus, UniProt P27467); experiment: Wnt3a-driven reporter signaling inhibition, dose response, selectivity assay for Gli-SUFU antagonist project, Wnt-LIGHT cells, luminescence (AID 651570); format: functional; conditions: read-out: IC50_Mean;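 note: Wnt-LIGHT reporter cells stimulated with conditioned medium from Wnt3a-producing cells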
Protein Wnt-3a, sequence (P27467 whole entry): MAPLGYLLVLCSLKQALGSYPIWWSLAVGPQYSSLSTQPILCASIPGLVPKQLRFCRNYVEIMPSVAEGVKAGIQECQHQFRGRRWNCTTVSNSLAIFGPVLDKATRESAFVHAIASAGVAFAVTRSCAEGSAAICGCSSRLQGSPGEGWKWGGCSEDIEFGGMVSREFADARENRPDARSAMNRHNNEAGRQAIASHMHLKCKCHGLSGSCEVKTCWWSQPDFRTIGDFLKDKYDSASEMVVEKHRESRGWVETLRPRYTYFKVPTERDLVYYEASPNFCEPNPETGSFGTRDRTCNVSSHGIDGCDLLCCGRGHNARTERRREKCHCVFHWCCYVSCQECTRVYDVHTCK

Beta-galactosidase = Beta-galactosidase (Escherichia coli, UniProt Q8VNN2); experiment: Dose response counterscreen for EBI2 assay utilizing the enzyme, b-galactosidase.; format: functional
Beta-galactosidase, sequence (Q8VNN2 whole entry): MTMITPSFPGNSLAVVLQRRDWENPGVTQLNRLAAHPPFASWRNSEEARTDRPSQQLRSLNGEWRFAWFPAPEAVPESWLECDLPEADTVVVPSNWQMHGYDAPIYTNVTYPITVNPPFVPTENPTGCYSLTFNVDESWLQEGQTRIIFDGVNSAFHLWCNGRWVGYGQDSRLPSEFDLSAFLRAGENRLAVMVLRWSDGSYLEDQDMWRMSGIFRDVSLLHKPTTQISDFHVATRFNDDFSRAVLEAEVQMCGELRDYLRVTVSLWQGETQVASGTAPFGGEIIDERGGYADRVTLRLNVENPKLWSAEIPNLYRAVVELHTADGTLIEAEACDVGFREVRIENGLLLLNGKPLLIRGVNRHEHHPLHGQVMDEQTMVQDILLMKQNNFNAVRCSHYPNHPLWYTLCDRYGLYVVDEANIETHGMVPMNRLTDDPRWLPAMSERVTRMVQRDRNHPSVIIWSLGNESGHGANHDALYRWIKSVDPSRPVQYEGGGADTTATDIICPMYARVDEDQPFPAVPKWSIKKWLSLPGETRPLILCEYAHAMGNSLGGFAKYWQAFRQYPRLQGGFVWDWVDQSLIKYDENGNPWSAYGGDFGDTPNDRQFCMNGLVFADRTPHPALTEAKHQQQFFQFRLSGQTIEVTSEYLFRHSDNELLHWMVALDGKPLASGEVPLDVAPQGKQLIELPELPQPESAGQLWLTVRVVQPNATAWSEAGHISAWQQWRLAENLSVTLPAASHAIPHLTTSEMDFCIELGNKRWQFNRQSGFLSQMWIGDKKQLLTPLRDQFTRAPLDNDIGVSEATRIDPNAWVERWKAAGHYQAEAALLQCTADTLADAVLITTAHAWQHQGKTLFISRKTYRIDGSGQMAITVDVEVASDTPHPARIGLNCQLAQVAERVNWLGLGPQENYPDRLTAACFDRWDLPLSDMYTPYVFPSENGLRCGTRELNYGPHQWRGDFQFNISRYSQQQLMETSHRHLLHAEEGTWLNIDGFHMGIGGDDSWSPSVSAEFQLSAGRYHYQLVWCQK

Cytochrome P450 2C19 = Cytochrome P450 2C19 (Homo sapiens, UniProt P33261); experiment: Cytochrome panel assay with activity outcomes. Panel member name: p450-cyp2c19 Compounds with AC50 equal or less than 10 uM are considered active; format: functional; conditions: read-out: AC50
Cytochrome P450 2C19, sequence (P33261 whole entry): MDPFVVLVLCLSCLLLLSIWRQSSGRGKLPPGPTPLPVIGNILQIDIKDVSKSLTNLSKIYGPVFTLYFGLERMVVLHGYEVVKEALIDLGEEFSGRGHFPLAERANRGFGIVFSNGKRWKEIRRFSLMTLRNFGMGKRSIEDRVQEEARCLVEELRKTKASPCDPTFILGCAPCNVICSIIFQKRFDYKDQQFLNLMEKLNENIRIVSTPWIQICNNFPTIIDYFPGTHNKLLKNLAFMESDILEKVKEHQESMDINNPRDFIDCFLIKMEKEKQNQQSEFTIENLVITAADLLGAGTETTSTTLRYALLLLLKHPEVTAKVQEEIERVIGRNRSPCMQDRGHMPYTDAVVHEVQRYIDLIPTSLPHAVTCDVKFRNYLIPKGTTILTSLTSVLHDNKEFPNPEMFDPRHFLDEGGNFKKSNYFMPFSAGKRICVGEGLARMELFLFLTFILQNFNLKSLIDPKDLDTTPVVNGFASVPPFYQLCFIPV

Cytochrome P450 2C9 = Cytochrome P450 2C9 (Homo sapiens, UniProt P11712)
Cytochrome P450 2C9, sequence (P11712 whole entry): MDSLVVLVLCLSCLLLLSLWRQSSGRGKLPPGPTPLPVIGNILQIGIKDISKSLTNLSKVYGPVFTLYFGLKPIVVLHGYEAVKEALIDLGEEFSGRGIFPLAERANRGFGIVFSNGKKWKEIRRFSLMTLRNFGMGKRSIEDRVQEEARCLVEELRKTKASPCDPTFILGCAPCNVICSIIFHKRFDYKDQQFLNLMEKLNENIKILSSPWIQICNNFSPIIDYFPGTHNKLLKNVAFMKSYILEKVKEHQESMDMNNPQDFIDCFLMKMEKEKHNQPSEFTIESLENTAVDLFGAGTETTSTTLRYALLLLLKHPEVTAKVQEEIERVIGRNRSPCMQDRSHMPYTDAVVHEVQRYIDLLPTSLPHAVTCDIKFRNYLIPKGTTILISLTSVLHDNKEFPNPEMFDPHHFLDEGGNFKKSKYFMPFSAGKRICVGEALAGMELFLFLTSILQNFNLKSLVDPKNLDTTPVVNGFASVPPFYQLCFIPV

[13] = biological target: ADP-ribosylation factor GTPase-activating protein 1 (Rattus norvegicus, UniProt Q62848); experiment: Fluorescence polarization-based biochemical high throughput dose response screening assay to identify inhibitors of ADP-ribosylation factor GTPase activating protein 1 (ARFGAP1).; format: functional
ADP-ribosylation factor GTPase-activating protein 1, sequence (Q62848 whole entry): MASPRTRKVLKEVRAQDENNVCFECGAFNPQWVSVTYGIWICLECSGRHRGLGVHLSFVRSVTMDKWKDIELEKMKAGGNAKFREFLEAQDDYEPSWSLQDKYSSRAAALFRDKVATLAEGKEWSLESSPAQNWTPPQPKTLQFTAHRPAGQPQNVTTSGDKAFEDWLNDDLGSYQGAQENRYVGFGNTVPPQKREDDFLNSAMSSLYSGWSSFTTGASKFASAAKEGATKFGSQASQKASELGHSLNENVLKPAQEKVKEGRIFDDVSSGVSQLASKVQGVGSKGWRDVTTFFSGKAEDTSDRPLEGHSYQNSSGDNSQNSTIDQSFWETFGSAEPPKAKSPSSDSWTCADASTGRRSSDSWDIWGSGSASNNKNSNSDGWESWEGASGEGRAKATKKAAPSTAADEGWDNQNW

cells [14] = format: functional, cell-based
[15] = biological target: T3, Trace amine-associated receptor 1 (Homo sapiens, UniProt Q96RJ0); experiment: Fluorescence-based cell-based high throughput dose response assay to identify agonists of the human trace amine associated receptor 1 (TAAR1).; format: functional
T3 sequence (Q96RJ0 whole entry): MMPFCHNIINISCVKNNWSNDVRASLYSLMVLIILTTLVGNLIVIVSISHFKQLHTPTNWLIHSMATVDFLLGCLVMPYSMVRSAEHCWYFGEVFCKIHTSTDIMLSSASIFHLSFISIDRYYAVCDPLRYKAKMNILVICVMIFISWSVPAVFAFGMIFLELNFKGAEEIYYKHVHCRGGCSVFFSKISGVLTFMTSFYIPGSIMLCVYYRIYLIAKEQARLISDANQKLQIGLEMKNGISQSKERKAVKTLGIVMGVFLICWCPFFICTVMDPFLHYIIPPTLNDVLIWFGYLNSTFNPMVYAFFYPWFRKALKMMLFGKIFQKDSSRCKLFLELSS

[16] = biological target: T3, Trace amine-associated receptor 1; experiment: Counterscreen for agonists of the human trace amine associated receptor 1 (hTAAR1): Fluorescence-based cell-based high throughput dose response assay to identify hTAAR1 agonist that also desensitize TAAR1 receptor response.; format: functional
cells [17] = format: functional, cell-based; remark: listed apart in the source
[18] = biological target: Glucose-6-phosphate 1-dehydrogenase (Homo sapiens, UniProt P11413); experiment: human G6PD enzyme inhibitors, dose response, selectivity assay for P. falciparum G6PD inhibitor project, biochemical, fluorescence (AID 504792); format: functional
Vero = experiment: cells; format: functional, Chlorocebus sabaeus; conditions: Chlorocebus sabaeus, Vero
SN12K1 = experiment: cells; format: functional; conditions: Homo sapiens
P388 = experiment: cells; format: functional; conditions: Mus musculus
P388/ADR = experiment: cells; format: functional; conditions: Mus musculus

CCCCCCn1c(NCC)nc2c1c(=O)n(C)c(=O)n2C
IC50 (Galanin receptor type 3): > 1.11 µM (active)
EC50 (cells [1]): > 29.9 µM (inactive)
AC50 [2]: 0.834 µM (active)
IC50 [3]: 9.46 µM (active)
AC50 [4]: 2.55 µM (active)
AC50 [5]: 9.18 µM (active)

COc1ccc(-c2ccc3c(c2)[C@@H]2[C@@H](CCN2C(=O)C2CCCCC2)[C@H](CO)N3C)cc1
AC50 [6]: 47.5 µM (active)
AC50 [7]: 10.7 µM (active)
AC50 [8]: 25.2 µM (active)
AC50 [9]: 32.7 µM (active)
AC50 (Paired box protein Pax-8): 6.75 µM (active)

C[C@@H]1CN([C@H](C)CO)C(=O)c2cc(NC(=O)NC3CCCCC3)ccc2O[C@@H](C)CCCCO[C@H]1CN(C)Cc1ccc(C(F)(F)F)cc1
AC50 [6]: 24.8 µM (active)
AC50 [7]: 25.7 µM (active)
AC50 [8]: 12.7 µM (active)
AC50 [9]: 54.1 µM (active)
AC50 (Paired box protein Pax-8): 6.85 µM (active)

CC(=O)NCCc1ccc(C(=O)COC(=O)c2cccs2)cc1
EC50 [10]: > 91.1 µM (inactive)
EC50 [11]: > 91.1 µM (inactive)

CCOC(=O)c1c(NC(=O)C(=O)N/N=C/c2ccccc2O)sc2c1CCCCC2
AC50 [12]: 2.31 µM (active)
IC50 (Protein Wnt-3a): 6.55 µM (active)

CN(C)S(=O)(=O)N1CCN(CC(O)COc2ccc3cc(Br)ccc3c2)CC1 (stereo not drawn)
IC50 (Beta-galactosidase): > 80 µM (inactive)

Cc1ccc(NC(=O)COc2ccccc2C(N)=O)cc1S(=O)(=O)N1CCCCCC1
IC50 (Protein Wnt-3a): 9.3 µM (active)

O=C(COc1ccc2ccccc2c1)N1CCN(C(=O)c2cccnc2)CC1
AC50 (Cytochrome P450 2C19): 15.8 µM (inconclusive)
IC50 (Beta-galactosidase): > 80 µM (inactive)
AC50 (Cytochrome P450 2C9): 31.6 µM (inconclusive)

C[C@@H]1CCCCO[C@@H](CN(C)C(=O)NC2CCCCC2)[C@H](C)CN([C@H](C)CO)C(=O)c2cc(NS(=O)(=O)c3ccc(Cl)cc3)ccc2O1
AC50 [7]: 15.7 µM (active)
AC50 [8]: 38.3 µM (active)
AC50 [9]: > 70 µM (inactive)
AC50 (Paired box protein Pax-8): 7.57 µM (active)

Fc1ccc(CN2CCN(c3ncc(Cc4ccccc4)cn3)CC2)c(Cl)c1
IC50 (Galanin receptor type 3): 1.06 µM (active)
EC50 (cells [1]): > 29.9 µM (inactive)
IC50 [3]: 10.1 µM (inactive)

COC(=O)c1ccc(Nc2nc(-c3ccncc3)nc3ccccc23)cc1
IC50 [13]: 98.4 µM (inactive)

Cc1cc2c(ccc3c2no[n+]3[O-])nn1
IC50 (Galanin receptor type 3): > 29.9 µM (inactive)
EC50 (cells [1]): > 29.9 µM (inactive)

N#Cc1c(N)sc2c1CCN(CCc1ccccc1)C2
IC50 (cells [14]): > 29.9 µM (inactive)
EC50 [15]: 1.58 µM (active)
IC50 [16]: 9.09 µM (active)
EC50 (cells [17]): > 29.9 µM (inactive)

Cc1ccc(/C=C/C(=O)NC2CCCCCCC2)o1
EC50 [10]: > 91.1 µM (inactive)
IC50 [18]: > 80 µM (inactive)
EC50 [11]: > 91.1 µM (inactive)

Cc1ccccc1-c1nc(CS(=O)(=O)CC(=O)NCCc2ccccc2)c(C)o1
IC50 (cells [14]): > 29.9 µM (inactive)
EC50 [15]: 3.59 µM (active)
IC50 [16]: 8.58 µM (active)
EC50 (cells [17]): > 29.9 µM (inactive)

Oc1cnnc(Nc2ccccc2)n1
IC50 (cells [14]): > 29.9 µM (inactive)
EC50 [15]: 4.6 µM (active)
IC50 [16]: > 29.9 µM (inactive)
EC50 (cells [17]): > 29.9 µM (inactive)

O=C(N[C@@H](Cc1cccnc1)C(=O)N1CCC[C@H]1C(=O)NCCc1ccccc1Cl)C1CCCC1
IC50 (cells [14]): > 29.9 µM (inactive)
EC50 [15]: 2.91 µM (active)
IC50 [16]: 3.72 µM (active)
EC50 (cells [17]): > 29.9 µM (inactive)

COc1ccc(OC)c(Cc2cnc3nc(N)nc(N)c3c2C)c1 [PIRITREXIM ISETHIONATE]
CC50 (Vero): 0.37 µM (active)
IC50 (Protein Wnt-3a): 3.35 µM (active)

CSCC(CO)NC(=O)/C=C/c1c(C)[nH]c(=O)[nH]c1=O (stereo not drawn)
GI50 (SN12K1): 518 µM (inactive)
GI50 (P388): 818 µM (inactive)
GI50 (P388/ADR): > 875 µM (inactive)

CCOCCOc1ccc(OCCOCC)cc1
GI50 (SN12K1): 15 µM (inactive)
GI50 (P388): 3.36 µM (inactive)
GI50 (P388/ADR): 1.45 µM (inactive)

CN(Cc1ccc(OCC(O)CN2CCCCC2)cc1)Cc1ccnc2ccccc12 (stereo not drawn)
AC50 [2]: 1.21 µM (active)
AC50 [4]: 4.07 µM (active)
AC50 [5]: 1.37 µM (active)
IC50 (Protein Wnt-3a): 3.4 µM (active)

C=C1C(=O)[C@]23C[C@H]1CCC2[C@]1(C)C(=O)CC[C@@](C)(C(=O)O)C1C[C@@H]3O (stereo partly drawn)
EC50 [10]: > 91.2 µM (inactive)
EC50 [11]: > 91.2 µM (inactive)

From ChEMBL document CHEMBL1201862, “PubChem BioAssay data set” (2004)
